According to article PMC4682813, “The Aminosteroid Derivative RM-133 Shows In Vitro and In Vivo Antitumor Activity in Human Ovarian and Pancreatic Cancers” (PLoS ONE, 2015):

Assays:
[1] = system: OVCAR-3 cells; assay: MTS cell proliferation (viability) assay, OVCAR-3; type: cell-based; details: Homo sapiens, 72 h incubation
Experimental: (§1) Human ovarian (OVCAR-3) and pancreatic (PANC-1) cancer cells were purchased from the American Type Culture Collection (ATCC, Rockville, MD) and maintained in exponential growth in a 5% CO2 humidified atmosphere at 37°C. OVCAR-3 cells were routinely grown in RPMI-1640 medium (Sigma, St. Louis, MO) supplemented with 20% FBS, L-glutamine (2 mM), antibiotics (100 IU penicillin/mL and 100 μg streptomycin/mL), insulin (50 ng/mL), and estradiol (1 nM). For OVCAR-3 cell proliferation assays, the medium used was identical, except for the omission of estradiol. […]
(§2) The cell proliferation assay was performed with a colorimetric method using 3-(4,5-dimethylthiazol-2-yl)-5-(3-carboxymethoxyphenyl)2-(4-sulfophenyl)-2H-tetrazolium (MTS) (Cell Titer 96 Aqueous, Promega, Madison, WI). […] MTS is converted to water-soluble colored formazan by dehydrogenases present in metabolically active cells, and therefore, the MTS assay allows the immediate determination of absorbance of the soluble formazan directly in the cell medium and thus the measurement of viable cells. The A 490 of the medium was determined using a 96-well microplate reader INFINITE 200 PRO series (TECAN, Männedorf, Switzerland). The IC50 value of RM-133 was determined for each of the two cell lines using the GraphPad Prism 7 software (GraphPad Software, Inc., San Diego, CA).

[2] = Plasma concentration of RM-133 with different vehicles; type: in vivo, Balb/c mice; details: female, Balb/c, mouse, sc, 120 mg/kg, single s.c. 120 mg/kg in 0.1 mL
[3] = Plasma concentration of RM-133 in mice at different injection doses; type: in vivo, Balb/c mice
Experimental: Eight ♀ Balb/c mice weighing approximately 20 g were separated in 4 groups. Mice in each group received a single s.c. injection of RM-133 (30, 60, 120, or 480 mg/kg). The vehicle used was propylene glycol:EtOH (92:8) and injection volume was 0.1 mL for all concentrations except at 480 mg/kg, where 0.2 mL was used. Blood was collected by cardiac puncture after 12 h, and the plasma concentration of RM-133 determined by LC-MS/MS as above.

[4] = system: PANC-1 cells; assay: MTS cell proliferation (viability) assay, PANC-1; type: cell-based; details: Homo sapiens, 72 h incubation
Experimental: as §1, §2

[5] = system: CYP3A4; set-up: method as in PMID 25300820; details: low to moderate risk of drug-drug interactions; cited from earlier work
[6] = Plasma concentration of RM-133 with different vehicles; type: in vivo, Balb/c mice; details: female, Balb/c, mouse, sc, 120 mg/kg, single s.c. 120 mg/kg in 0.1 mL; remark: listed apart in the source
Excerpt: Eleven different vehicles were investigated by s.c. injection. These vehicles were formulated as follows: vehicle #1 [propylene glycol:EtOH (92:8)]; vehicle #2 [aqueous 0.4% methylcellulose:EtOH (92:8)]; vehicle #3 [castor oil:EtOH:benzyl alcohol:benzyl benzoate (65:10:10:15)]; vehicle #4 [sunflower oil:EtOH (92:8)]; vehicle #5 [sunflower oil:tetrahydrofuran (92:8)]; vehicle #6 [aqueous 25% β-cyclodextrin:EtOH (92:8)]; vehicle #7 [sesame oil:EtOH:benzyl benzoate:benzyl alcohol:Tween 80 (89.8:7.8:1:1:0.5)]; vehicle #8 [soya oil:EtOH (92:8)]; vehicle #9 [RPMI medium:EtOH (92:8)]; vehicle #10 [saline:dimethyl sulfoxide (DMSO):Tween 80 (89.5:10:0.5)]; and vehicle #11 [saline:benzyl alcohol:carboxymethylcellulose:Tween 80 (98.2:0.9:0.5:0.4)]. The eight vehicles producing the best RM-133 solubility (#1–8) were injected s.c. (0.1 mL) without the test compound (RM-133) for tolerance and behavioral evaluation studies, by observing mice at 0.25, 1, 3, 7, 23, 26, 28, 30, and 96 h post-injection. Finally, RM-133 was injected s.c. once at 120 mg/kg/0.1 mL of the best […] tolerated vehicles (#1,2,4–7) into ♀ Balb/c mice (4 per group), and mice were next monitored with blood collection by cardiac puncture after 3 and 12 h. The plasma concentration of RM-133 was then determined by LC-MS/MS as above.

[7] = vehicle #7 sesame oil (89.7%) EtOH (7.8%) benzyl benzoate (1%) benzyl alcohol (1%) Tween 80 (0.5%)
[8] = vehicle #8 soya oil (92%) EtOH (8%)
[9] = vehicle #1 propylene glycol (92%) EtOH (8%)
[10] = vehicle #2 aqueous 0.4% methylcellulose (92%) EtOH (8%)
[11] = vehicle #4 sunflower oil (92%) EtOH (8%)
[12] = vehicle #5 sunflower oil (92%) tetrahydrofuran (8%)
[13] = vehicle #6 aqueous 25% β-cyclodextrin (92%) EtOH (8%)

What does the source list for `C#C[C@]1(O)CC[C@H]2[C@@H]3CC[C@H]4C[C@H](O)[C@@H](N5CCN(C(=O)[C@@H]6CCCN6C(=O)c6ccc7ccccc7n6)CC5)C[C@]4(C)[C@H]3CC[C@@]21C` [RM-133]?
IC50 [1]: 800 nM; concentration at 3 h [2, 7]: 302 ± 7 ng/mL; concentration at 12 h [2, 7]: 214 ± 8 ng/mL; concentration at 3 h [2, 8]: 137 ± 2 ng/mL; concentration at 12 h [2, 8]: 52 ± 1 ng/mL; tolerance ([3]; 480 mg/kg s.c. in 0.2 mL propylene glycol:EtOH (92:8), motion discomfort, same with vehicle alone): not tolerated; plasma concentration as percentage of the injected amount ([3]; 12 h after single s.c. 30 mg/kg, propylene glycol:EtOH (92:8)): 17%; concentration at 12 h ([3]; female, mouse, plasma, sc, 12 h after single s.c. 30 mg/kg, propylene glycol:EtOH (92:8), Balb/c mice): 167 ng/mL; IC50 [4]: 300 nM; inhibition of CYP3A4 [5]: weak inhibition; concentration at 3 h [6, 9]: 314 ± 2 ng/mL; concentration at 12 h [6, 9]: 189 ± 5 ng/mL; concentration at 3 h [6, 10]: 449 ± 5 ng/mL; concentration at 12 h [6, 10]: 171 ± 10 ng/mL; concentration at 3 h [6, 11]: 285 ± 5 ng/mL; concentration at 12 h [6, 11]: 173 ± 6 ng/mL; concentration at 3 h [6, 12]: 642 ± 20 ng/mL; concentration at 12 h [6, 12]: 374 ± 9 ng/mL; concentration at 3 h [6, 13]: 2960 ± 121 ng/mL; concentration at 12 h [6, 13]: 1780 ± 47 ng/mL
